According to PMC5154332 (Neuropharmacology, 2017):
Several values for one entry are separate records, joined by “and”; a condition that tells them apart may be missing. Equal values may be shown once. Read-outs that look alike come from different tables or passages of the source.

Key:
rat model of myotonia = assay: In vivo antimyotonic activity, time of righting reflex
hNav1.4 – WT = hNav1.4 – WT (Homo sapiens, UniProt P35499); details: cited from earlier work; for 0.1-to-10 Hz ratio: ratio of IC50 values
hNav1.4 – WT, sequence (P35499 whole entry): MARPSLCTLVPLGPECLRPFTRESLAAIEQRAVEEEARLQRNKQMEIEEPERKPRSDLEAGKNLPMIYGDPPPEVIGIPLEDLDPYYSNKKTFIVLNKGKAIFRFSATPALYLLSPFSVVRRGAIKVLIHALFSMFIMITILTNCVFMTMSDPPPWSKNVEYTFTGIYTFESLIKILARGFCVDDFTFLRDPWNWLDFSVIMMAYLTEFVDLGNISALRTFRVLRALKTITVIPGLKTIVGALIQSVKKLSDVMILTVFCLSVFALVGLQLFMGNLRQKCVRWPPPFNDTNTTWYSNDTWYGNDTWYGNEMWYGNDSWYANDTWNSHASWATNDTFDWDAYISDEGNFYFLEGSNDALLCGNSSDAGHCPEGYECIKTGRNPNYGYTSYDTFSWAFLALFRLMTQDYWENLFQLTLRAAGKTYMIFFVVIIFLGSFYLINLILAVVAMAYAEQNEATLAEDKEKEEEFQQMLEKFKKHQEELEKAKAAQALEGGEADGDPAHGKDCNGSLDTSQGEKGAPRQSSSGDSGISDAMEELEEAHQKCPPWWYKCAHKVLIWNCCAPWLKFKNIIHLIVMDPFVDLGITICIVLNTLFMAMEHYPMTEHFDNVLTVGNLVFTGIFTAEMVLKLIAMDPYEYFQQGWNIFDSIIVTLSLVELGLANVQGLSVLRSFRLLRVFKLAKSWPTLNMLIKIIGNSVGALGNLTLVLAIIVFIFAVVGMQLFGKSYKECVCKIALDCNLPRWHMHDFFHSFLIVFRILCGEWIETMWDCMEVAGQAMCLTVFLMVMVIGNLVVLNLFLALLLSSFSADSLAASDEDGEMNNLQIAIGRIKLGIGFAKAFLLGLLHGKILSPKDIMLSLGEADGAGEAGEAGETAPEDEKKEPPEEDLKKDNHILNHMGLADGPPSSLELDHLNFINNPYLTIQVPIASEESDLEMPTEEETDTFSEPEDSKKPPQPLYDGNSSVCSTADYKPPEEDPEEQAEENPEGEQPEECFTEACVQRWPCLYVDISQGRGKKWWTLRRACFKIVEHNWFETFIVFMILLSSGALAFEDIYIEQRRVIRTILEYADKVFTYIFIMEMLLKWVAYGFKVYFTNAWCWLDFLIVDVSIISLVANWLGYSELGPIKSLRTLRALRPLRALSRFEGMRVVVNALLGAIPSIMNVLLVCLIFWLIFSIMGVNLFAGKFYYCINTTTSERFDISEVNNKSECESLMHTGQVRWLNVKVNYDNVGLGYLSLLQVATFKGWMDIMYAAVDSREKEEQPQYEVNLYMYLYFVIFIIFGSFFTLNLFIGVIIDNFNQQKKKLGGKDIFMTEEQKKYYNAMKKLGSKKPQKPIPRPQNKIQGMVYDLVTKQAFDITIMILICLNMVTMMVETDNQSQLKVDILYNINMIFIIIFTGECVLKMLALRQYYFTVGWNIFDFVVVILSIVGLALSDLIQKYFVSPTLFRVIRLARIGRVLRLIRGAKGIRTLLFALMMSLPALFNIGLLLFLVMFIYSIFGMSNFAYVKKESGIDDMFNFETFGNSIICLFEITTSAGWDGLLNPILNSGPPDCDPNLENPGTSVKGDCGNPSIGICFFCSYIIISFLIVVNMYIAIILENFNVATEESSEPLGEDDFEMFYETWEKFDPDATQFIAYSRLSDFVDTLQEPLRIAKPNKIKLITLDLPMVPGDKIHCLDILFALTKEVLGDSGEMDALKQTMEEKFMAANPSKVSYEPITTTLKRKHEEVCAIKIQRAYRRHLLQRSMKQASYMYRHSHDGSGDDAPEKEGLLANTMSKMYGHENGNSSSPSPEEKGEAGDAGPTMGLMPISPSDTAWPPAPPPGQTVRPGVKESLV

hERG potassium channel = hERG potassium channel (Homo sapiens, UniProt Q12809); assay: Patch-clamp of hERG potassium currents in transfected tsA201 cells; type: cell-based
hERG potassium channel, sequence (Q12809 whole entry): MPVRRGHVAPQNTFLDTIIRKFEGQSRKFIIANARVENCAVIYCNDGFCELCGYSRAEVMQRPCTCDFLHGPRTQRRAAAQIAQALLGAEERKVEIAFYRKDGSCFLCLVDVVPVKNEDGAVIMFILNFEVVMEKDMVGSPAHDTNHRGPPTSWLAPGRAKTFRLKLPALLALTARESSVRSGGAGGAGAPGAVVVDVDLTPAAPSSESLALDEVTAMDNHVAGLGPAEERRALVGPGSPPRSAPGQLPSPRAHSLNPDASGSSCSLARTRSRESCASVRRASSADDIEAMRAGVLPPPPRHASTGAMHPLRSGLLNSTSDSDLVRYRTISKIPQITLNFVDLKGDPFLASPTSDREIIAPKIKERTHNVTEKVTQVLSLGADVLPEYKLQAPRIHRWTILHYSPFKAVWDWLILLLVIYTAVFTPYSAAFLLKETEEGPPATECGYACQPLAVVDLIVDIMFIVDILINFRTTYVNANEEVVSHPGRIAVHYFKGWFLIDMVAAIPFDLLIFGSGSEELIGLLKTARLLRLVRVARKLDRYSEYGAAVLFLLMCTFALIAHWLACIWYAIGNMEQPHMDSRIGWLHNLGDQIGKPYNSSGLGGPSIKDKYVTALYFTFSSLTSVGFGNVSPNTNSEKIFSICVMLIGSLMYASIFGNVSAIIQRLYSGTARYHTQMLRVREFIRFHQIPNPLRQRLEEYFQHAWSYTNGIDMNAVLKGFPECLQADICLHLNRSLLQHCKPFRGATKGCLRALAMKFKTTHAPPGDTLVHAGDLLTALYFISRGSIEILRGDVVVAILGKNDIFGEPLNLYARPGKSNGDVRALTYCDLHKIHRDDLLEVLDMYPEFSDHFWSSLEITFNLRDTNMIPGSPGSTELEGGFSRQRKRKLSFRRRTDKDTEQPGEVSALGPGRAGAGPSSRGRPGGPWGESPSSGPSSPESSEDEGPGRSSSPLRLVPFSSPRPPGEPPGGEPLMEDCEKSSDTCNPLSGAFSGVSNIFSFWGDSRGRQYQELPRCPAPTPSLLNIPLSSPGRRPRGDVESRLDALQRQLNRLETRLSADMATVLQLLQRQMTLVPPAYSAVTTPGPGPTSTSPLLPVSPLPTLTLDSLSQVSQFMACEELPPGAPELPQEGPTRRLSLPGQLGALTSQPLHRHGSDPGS

hNav1.4 - F1586C = hNav1.4 - F1586C (Homo sapiens, UniProt P35499, F1586C); details: ref Desaphy et al., 2012, cited from earlier work
hNav1.4 - F1586C, sequence (P35499 whole entry F1586C): as the sequence (P35499 whole entry) above, with F1586C counted along it

hNav1.4 channels = hNav1.4 channels (Homo sapiens, UniProt P35499); assay: cell-based
hNav1.4 channels, sequence (P35499 whole entry): as the sequence (P35499 whole entry) above

HeLa = details: 100 μM; ref Ghelardini et al., 2010; cited from earlier work
MRC-5 = details: 100 μM; ref Ghelardini et al., 2010; cited from earlier work
[1] = test system: murine C2C12 skeletal muscle cells; assay: In vitro cytotoxicity, CCK-8 cell viability; type: cell-based; details: C2C12, 6 h, from 100 μM to 1 mM
[2] = humans; ref Lalka et al., 1976; cited from earlier work
[3] = current at end of first voltage step

**Q.** Which “In vivo Min” value (rat model of myotonia; minimal TRR value of the dose-response fit) does the source give for `Cc1cccc(C)c1OCC(C)N` (stereo not drawn) [Mexiletine, mexiletine] here?
**A.** 18.0 ± 7.3%

**Q.** And the “maximal TRR reduction” value (rat model of myotonia; oral, from dose-response fit)?
**A.** ~80%

**Q.** And the “Tonic block (0.1 Hz) nH” value (hNav1.4 – WT; ref Desaphy et al., 2012)?
**A.** 0.9 ± 0.1

**Q.** What about the “Phasic block (10 Hz) nH” value (hNav1.4 – WT; ref Desaphy et al., 2012) of the same compound?
**A.** 0.8 ± 0.1

**Q.** What about the “0.1-to-10 Hz ratio” value (hNav1.4 – WT; ref Desaphy et al., 2012) of the same compound?
**A.** 10.3

**Q.** And the IC50 (hNav1.4 – WT; read-out: Phasic block (10 Hz) IC50, 10 Hz, ref Desaphy et al., 2012)?
**A.** 24 ± 2 µM

**Q.** What about the “concentration at which inhibition of hERG currents was complete” value (hERG potassium channel; [3]) of the same compound?
**A.** 1000 µM

**Q.** And the “concentrations at which inhibition of hERG currents was observed” value (hERG potassium channel; [3])?
**A.** greater than 1 μM

**Q.** And the IC50 (hERG potassium channel; hERG IC50, tail currents at −50 mV after test depolarization at −10 mV)?
**A.** 43 µM

**Q.** What about the “ratio between hERG and hNav1.4 (myotonia-like condition) IC50” value (hERG potassium channel; hERG IC50 versus hNav1.4 IC50 at 50 Hz) of the same compound?
**A.** 2.5 fold

**Q.** What about the “hERG nH” value (hERG potassium channel; tail currents, Hill slope factor) of the same compound?
**A.** 0.79 ± 0.07

**Q.** And the “Tonic block (0.1 Hz) nH” value (hNav1.4 - F1586C; 0.1 Hz)?
**A.** 1.1 ± 0.1

**Q.** What about the “Phasic block (10 Hz) nH” value (hNav1.4 - F1586C; 10 Hz) of the same compound?
**A.** 1.0 ± 0.2

**Q.** What about the “0.1-to-10 Hz ratio” value (hNav1.4 - F1586C; ratio of IC50 values) of the same compound?
**A.** 1.2

**Q.** And the “In vitro nH” value (hNav1.4 channels)?
**A.** 1.2 ± 0.2

**Q.** What about the IC50 (hNav1.4 channels; In vitro IC50) of the same compound?
**A.** 17 µM and 16.9 µM

**Q.** What does the source list for `Cc1cccc(C)c1NC(=O)C(C)N` (stereo not drawn) [Tocainide, tocainide]?
**A.** HeLa cell viability (HeLa): reduction; Tonic block (0.1 Hz) nH (hNav1.4 – WT; ref Ghelardini et al., 2010): 1.0 ± 0.1; Phasic block (10 Hz) nH (hNav1.4 – WT; ref Ghelardini et al., 2010): 1.1 ± 0.2; 0.1-to-10 Hz ratio (hNav1.4 – WT; ref Ghelardini et al., 2010): 3.8; MRC-5 cell viability (MRC-5): reduction; reduction of cell viability [1]: about 20%; oral bioavailability [2]: ~100%; plasma protein bound [2]: ~50%
